Assay: mn = molality of the nth substance listed, in mol/kg
Details: 101 kPa, Liquid; for speed of sound: Single path-length method; for mass density: Vibrating tube method

CCOC(=O)CC(C)=O [ethyl 3-oxobutanoate] + O
Details | mass density, 288.15 K [kg/m3] | mass density, 293.15 K [kg/m3] | mass density, 298.15 K [kg/m3] | mass density, 303.15 K [kg/m3] | mass density, 308.15 K [kg/m3] | speed of sound, 288.15 K [m/s] | speed of sound, 293.15 K [m/s] | speed of sound, 298.15 K [m/s] | speed of sound, 303.15 K [m/s] | speed of sound, 308.15 K [m/s]
m1 = 0.076 | 1000.05 | 999.128 | 997.91 | 996.474 | 994.809 | 1472.6 | 1487.8 | 1501.3 | 1513 | 1523.1
m1 = 0.1625 | 1001.1 | 1000.13 | 998.838 | 997.358 | 995.64 | 1479.2 | 1493.6 | 1506.4 | 1517.4 | 1526.9
m1 = 0.2495 | 1002.14 | 1001.1 | 999.76 | 998.22 | 996.445 | 1485.5 | 1499.2 | 1511.2 | 1521.6 | 1530.4
m1 = 0.3767 | 1003.62 | 1002.48 | 1001.05 | 999.44 | 997.59 | 1494.1 | 1506.7 | 1517.7 | 1527.1 | 1535
m1 = 0.4725 | 1004.7 | 1003.48 | 1002 | 1000.32 | 998.41 | 1500 | 1511.7 | 1522 | 1530.8 | 1538.1
m1 = 0.5324 | 1005.38 | 1004.1 | 1002.58 | 1000.86 | 998.9 | 1503.4 | 1514.7 | 1524.5 | 1532.9 | 1539.8
m1 = 0.6848 | 1007.03 | 1005.6 | 1004 | 1002.18 | 1000.12 | 1511.6 | 1521.7 | 1530.5 | 1537.8 | 1543.7
m1 = 0.7843 | 1008.1 | 1006.56 | 1004.9 | 1003.01 | 1000.9 | 1516.3 | 1525.7 | 1533.7 | 1540.4 | 1545.8
m1 = 0.9019 | 1009.31 | 1007.65 | 1005.93 | 1003.94 | 1001.76 | 1521.4 | 1529.9 | 1537.2 | 1543.1 | 1547.8

O [water] + CCOC(=O)CC(C)=O
Details | mass density [kg/m3]
308.15 K, m2 = 0 | 994.062

CCCCn1cc[n+](C)c1.[Br-] [1-butyl-3-methylimidazolium bromide] + O
Details | mass density, 288.15 K [kg/m3] | mass density, 293.15 K [kg/m3] | mass density, 298.15 K [kg/m3] | mass density, 303.15 K [kg/m3] | mass density, 308.15 K [kg/m3] | speed of sound, 288.15 K [m/s] | speed of sound, 293.15 K [m/s] | speed of sound, 298.15 K [m/s] | speed of sound, 303.15 K [m/s] | speed of sound, 308.15 K [m/s]
m1 = 0.1019 | 1004.34 | 1003.53 | 1002.16 | 1000.83 | 999.035 | 1479 | 1494.2 | 1506.8 | 1518.8 | 1528.1
m1 = 0.3048 | 1000.67 | 999.754 | 998.577 | 997.164 | 995.54 | 1470.2 | 1486.1 | 1500 | 1512.1 | 1522.2

COC(=O)CC(C)=O [methyl 3-oxobutanoate] + O
Details | mass density, 288.15 K [kg/m3] | mass density, 293.15 K [kg/m3] | mass density, 298.15 K [kg/m3] | mass density, 303.15 K [kg/m3] | mass density, 308.15 K [kg/m3] | speed of sound, 288.15 K [m/s] | speed of sound, 293.15 K [m/s] | speed of sound, 298.15 K [m/s] | speed of sound, 303.15 K [m/s] | speed of sound, 308.15 K [m/s]
m1 = 0.0809 | 1000.36 | 999.43 | 998.205 | 996.78 | 995.12 | 1472.5 | 1487.7 | 1501.3 | 1513.1 | 1523.2
m1 = 0.1654 | 1001.65 | 1000.66 | 999.37 | 997.9 | 996.2 | 1477.3 | 1491.9 | 1504.8 | 1516.1 | 1525.7
m1 = 0.285 | 1003.44 | 1002.36 | 1001 | 999.454 | 997.68 | 1484.7 | 1498.3 | 1510.5 | 1521 | 1529.9
m1 = 0.386 | 1004.9 | 1003.75 | 1002.33 | 1000.73 | 998.91 | 1490.1 | 1503.1 | 1514.6 | 1524.4 | 1532.7
m1 = 0.4607 | 1005.98 | 1004.75 | 1003.3 | 1001.65 | 999.79 | 1494.2 | 1506.6 | 1517.6 | 1527 | 1534.9
m1 = 0.5604 | 1007.37 | 1006.06 | 1004.56 | 1002.85 | 1000.94 | 1499.6 | 1511.4 | 1521.7 | 1530.5 | 1537.9
m1 = 0.6367 | 1008.4 | 1007.01 | 1005.53 | 1003.74 | 1001.79 | 1503 | 1514.2 | 1524.1 | 1532.5 | 1539.5
m1 = 0.7871 | 1010.4 | 1008.9 | 1007.35 | 1005.47 | 1003.45 | 1509.8 | 1520.2 | 1529.1 | 1536.7 | 1542.9
m1 = 0.8429 | 1011.13 | 1009.58 | 1008 | 1006.11 | 1004.04 | 1512.2 | 1522.2 | 1530.9 | 1538.1 | 1544

O [water] + CCCCn1cc[n+](C)c1.[Br-]
Details | mass density [kg/m3]
308.15 K, m2 = 0 | 994.062

O [water] + COC(=O)CC(C)=O
Details | mass density [kg/m3]
308.15 K, m2 = 0 | 994.062

Reference: the NIST ThermoML archive (doi:10.1016/j.tca.2013.12.015)
